Like-named read-outs stand apart in the source and are kept apart here.
Experiments:
ATF4 = ATF4 expression inhibition assay (ATF4 5'UTR luciferase reporter, thapsigargin-stressed); format: cell-based; details: Homo sapiens, HEK-293T, read-out: ATF4 inhibition
Procedure: The ATF4 reporter was prepared by fusing the human full length 5′UTR of ATF4 (NCBI Accession No. BC022088.2) upstream of the firefly luciferase coding sequence lacking the initiator methionine. The fused sequence was cloned into pLenti-EF1a-C-Myc-DDK-IRES-Puro cloning vector (Origen #PS100085) using standard methods.
HEK293T cells carrying the ATF4 luciferase reporter were plated on 96-well plates (Nunc) at 10,000 cells per well. Cells were treated two days after seeding with 100 nM thapsigargin (Tg) (Sigma-Aldrich #T9033) in the presence of different concentrations of selected compounds ranging from 0.1 nM to 10 μM. Cells without treatment or cells treated with Tg alone were used as controls. Assay plates containing cells were incubated for 3 hours at 37° C.
Luciferase reactions were performed using Luciferase Assay System (Promega #E1501) as specified by the manufacturer. Luminescence was read with an integration time of 1 s and a gain of 110 using a Cytation-5 multi-mode microplate reader (BioTek).

[1] = system: Chinese hamster ovary (CHO) cells; test: Protein synthesis assay (puromycin incorporation, Western blot); format: cell-based; details: Cricetulus griseus, read-out: % Protein synthesis relative to untreated (1 μM test compound)
Procedure: Chinese hamster ovary (CHO) cells were maintained at 37° C. and 5% CO2 in Dulbecco's Modified Eagle's Media (DMEM) supplemented with 10% fetal bovine serum, 2 mM L-glutamine, 100 U/ml penicillin, and 100 μg/ml streptomycin. After reaching 80% of confluence, cells were detached and seeded on 6 well plates in complete media, allowed to recover overnight and treated for 2 hours with 1 μM of the test compound (to assess protein synthesis levels in unstressed condition), or for 2 hours with 300 nM Tg in the presence of 1 μM of the test compound (to assess the recovery of protein synthesis in a stressed condition). Cells with Tg alone were used as controls.
After the 2 hours treatments, media were replaced by adding 10 μg/ml puromycin (Sigma Aldrich #P8833) in complete media for 30 min. Media were removed and cells were lysed with SDS-PAGE lysis buffer. Lysates were transferred to 1.5 ml tubes and sonicated for 3 min and total protein amount were quantified using BCA Protein Assay Kit (Pierce). Equal amount of protein (30 μg) was loaded on SDS-PAGE gels.
A HRP-conjugated secondary antibody (Rockland) was employed to detect immune-reactive bands using enhanced chemiluminescence (ECL Western Blotting Substrate, Pierce). Quantification of protein bands was done by densitometry using ImageJ software.
The percentage levels were normalized to the media alone condition, which correspond to 100% protein synthesis. […]

[2] = HEK293T cells carrying ATF4 luciferase reporter, 100 nM thapsigargin, 3 hours
[3] = unstressed CHO cells (without Tg), 1 μM test compound, 2 hours, media alone = 100%

O=C(NN1CCC(c2nnc([C@H]3C[C@@H](OC(F)(F)F)C3)o2)CC1)c1cc2cc(Cl)ccc2o1 [Compound 251, 5-chloro-N-(4-(5-(cis-3-(trifluoromethoxy)cyclobutyl)-1,3,4-oxadiazol-2-yl)piperidin-1-yl)benzofuran-2-carboxamide]
IC50 (ATF4; [2]): < 10 nM

O=C(COc1ccc(Cl)c(F)c1)NN1CCC(c2nnc(COc3ccc(Cl)cc3)o2)CC1 [Compound 240, 2-(4-chloro-3-fluorophenoxy)-N-(4-(5-((4-chlorophenoxy)methyl)-1,3,4-oxadiazol-2-yl)piperidin-1-yl)acetamide]
IC50 (ATF4; [2]): < 10 nM
activity at 1 µM [1, 3]: 42.3%

O=C(COc1ccc(Cl)c(F)c1)N[C@H]1CC[C@H](c2nnc([C@H]3CNc4cc(Cl)ccc4O3)o2)CC1 (single isomer, unassigned) [Compound 43]
IC50 (ATF4; [2]): < 10 nM
activity at 1 µM [1, 3]: 86.3%

O=C(Nc1ccc2cc(Cl)ccc2n1)[C@H]1CC[C@@H](c2cnn(-c3ccc(Cl)cc3)c2)CC1 [Compound 249, cis-4-(1-(4-chlorophenyl)-1H-pyrazol-4-yl)-N-(6-chloroquinolin-2-yl)cyclohexanecarboxamide]
IC50 (ATF4; [2]): 100 to 1000 nM

O=C(NC[C@H]1CC[C@H](c2nnc(-c3ccc(Cl)cc3)o2)CC1)c1ccc(C(F)(F)F)cn1 [Compound 20, trans-N-((4-(5-(4-chlorophenyl)-1,3,4-oxadiazol-2-yl)cyclohexyl)methyl)-5-(trifluoromethyl)picolinamide]
IC50 (ATF4; [2]): 100 to 1000 nM

O=C(NCc1ccc2cc(Cl)ccc2n1)[C@H]1CC[C@H](c2nnc(-c3ccc(Cl)cc3)o2)CC1 [Compound 47, trans-4-(5-(4-chlorophenyl)-1,3,4-oxadiazol-2-yl)-N-((6-chloroquinolin-2-yl)methyl)cyclohexanecarboxamide]
IC50 (ATF4; [2]): > 1000 nM
activity at 1 µM [1, 3]: 2%

O=C(Nc1ccc2cc(Cl)ccc2n1)[C@H]1CC[C@H](c2nc(-c3ccc(Cl)cc3)co2)CC1 [Compound 32, trans-4-(4-(4-chlorophenyl)oxazol-2-yl)-N-(6-chloroquinolin-2-yl)cyclohexanecarboxamide]
IC50 (ATF4; 3 h): > 1000 nM
activity at 1 µM ([1]; CHO, 2 h): 136%

O=C(N[C@H]1CC[C@H](c2nnc(COc3ccc(Cl)cc3)o2)CC1)c1cc2cc(Cl)ccc2o1 [Compound 10, trans-5-chloro-N-(4-(5-((4-chlorophenoxy)methyl)-1,3,4-oxadiazol-2-yl)cyclohexyl)benzofuran-2-carboxamide]
IC50 (ATF4; [2]): < 10 nM
activity at 1 µM [1, 3]: 165%

O=C(Nc1ccc2cc(Cl)ccc2n1)C1CCN(c2nnc(-c3ccc(Cl)cc3)o2)CC1 [Compound 49, 1-(5-(4-chlorophenyl)-1,3,4-oxadiazol-2-yl)-N-(6-chloroquinolin-2-yl)piperidine-4-carboxamide]
IC50 (ATF4; [2]): 100 to 1000 nM

O=C(Nc1ccc2cc(Cl)ccc2n1)[C@H]1CC[C@H](c2nc(-c3ccc(Cl)cc3)cs2)CC1 [Compound 33, trans-4-(4-(4-chlorophenyl)thiazol-2-yl)-N-(6-chloroquinolin-2-yl)cyclohexanecarboxamide]
IC50 (ATF4; 3 h): > 1000 nM
activity at 1 µM ([1]; CHO, 2 h): 11.4%

O=C(NCc1cc2cc(Cl)ccc2o1)[C@H]1CC[C@H](c2nnc(-c3cc4cc(Cl)ccc4o3)o2)CC1 [Compound 54, trans-4-(5-(5-chlorobenzofuran-2-yl)-1,3,4-oxadiazol-2-yl)-N-((5-chlorobenzofuran-2-yl)methyl)cyclohexanecarboxamide]
IC50 (ATF4; [2]): 100 to 1000 nM

O=C(NCc1cc2cc(Cl)ccc2o1)[C@H]1CC[C@H](c2nnc(COc3ccc(Cl)cc3)o2)CC1 [Compound 53, trans-N-((5-chlorobenzofuran-2-yl)methyl)-4-(5-((4-chlorophenoxy)methyl)-1,3,4-oxadiazol-2-yl)cyclohexanecarboxamide]
IC50 (ATF4; [2]): 100 to 1000 nM

O=C(NCc1cc2cc(Cl)ccc2o1)[C@H]1CC[C@H](c2nnc(-c3ccc(Cl)cc3)o2)CC1 [Compound 51, trans-N-((5-chlorobenzofuran-2-yl)methyl)-4-(5-(4-chlorophenyl)-1,3,4-oxadiazol-2-yl)cyclohexanecarboxamide]
IC50 (ATF4; [2]): 100 to 1000 nM

O=C(Nc1ccc2cc(Cl)ccc2n1)C1CCN(c2nnc([C@H]3C[C@@H](OC(F)(F)F)C3)o2)CC1 [Compound 50, N-(6-chloroquinolin-2-yl)-1-(5-(cis-3-(trifluoromethoxy)cyclobutyl)-1,3,4-oxadiazol-2-yl)piperidine-4-carboxamide]
IC50 (ATF4; [2]): 100 to 1000 nM

O=C(NN1CCC(c2nnc([C@H]3C[C@@H](OC(F)(F)F)C3)o2)CC1)C1CNc2cc(Cl)ccc2O1 (some centres unmarked) [Compound 252, 6-chloro-N-(4-(5-((1s,3s)-3-(trifluoromethoxy)cyclobutyl)-1,3,4-oxadiazol-2-yl)piperidin-1-yl)-3,4-dihydro-2H-benzo[b][1,4]oxazine-2-carboxamide]
IC50 (ATF4; [2]): < 10 nM

O=C(Nc1nc2cc(Cl)ccc2s1)[C@H]1CC[C@H](c2nnc([C@H]3C[C@@H](OC(F)(F)F)C3)o2)CC1 [Compound 52, trans-N-(5-chlorobenzo[d]thiazol-2-yl)-4-(5-(cis-3-(trifluoromethoxy)cyclobutyl)-1,3,4-oxadiazol-2-yl)cyclohexanecarboxamide]
IC50 (ATF4; [2]): 10 to 100 nM

O=C(Nc1nc2cc(Cl)ccc2o1)[C@H]1CC[C@H](c2nnc(CO[C@H]3C[C@@H](OC(F)(F)F)C3)o2)CC1 [Compound 41, trans-N-(5-chlorobenzo[d]oxazol-2-yl)-4-(5-((cis-3-(trifluoromethoxy)cyclobutoxy)methyl)-1,3,4-oxadiazol-2-yl)cyclohexanecarboxamide]
IC50 (ATF4; 3 h): 100 to 1000 nM

O=C(Nc1ccc2cc(Cl)ccc2n1)[C@H]1CC[C@H](c2nnc([C@H]3C[C@@H](C(F)(F)F)C3)o2)CC1 [Compound 248, trans-N-(6-chloroquinolin-2-yl)-4-(5-(cis-3-(trifluoromethyl)cyclobutyl)-1,3,4-oxadiazol-2-yl)cyclohexanecarboxamide]
IC50 (ATF4; [2]): 100 to 1000 nM

O=C(Nc1nc2cc(Cl)ccc2s1)[C@H]1CC[C@H](c2nnc(CO[C@H]3C[C@@H](OC(F)(F)F)C3)o2)CC1 [Compound 39, trans-N-(5-chlorobenzo[d]thiazol-2-yl)-4-(5-((cis-3-(trifluoromethoxy)cyclobutoxy)methyl)-1,3,4-oxadiazol-2-yl)cyclohexanecarboxamide]
IC50 (ATF4; [2]): > 1000 nM

O=C(Nc1nc2cc(Cl)ccc2o1)[C@H]1CC[C@H](c2nnc([C@H]3C[C@@H](OC(F)(F)F)C3)o2)CC1 [Compound 241, trans-N-(5-chlorobenzo[d]oxazol-2-yl)-4-(5-(3-(cis-trifluoromethoxy)cyclobutyl)-1,3,4-oxadiazol-2-yl)cyclohexanecarboxamide]
IC50 (ATF4; [2]): 100 to 1000 nM

O=C(Nc1ccc2cc(Cl)ccc2n1)[C@H]1CC[C@H](c2nnc(COc3ccc(Cl)cc3)o2)CC1 [Compound 40, trans-4-(5-((4-chlorophenoxy)methyl)-1,3,4-oxadiazol-2-yl)-N-(6-chloroquinolin-2-yl)cyclohexanecarboxamide]
IC50 (ATF4; [2]): 10 to 100 nM

O=C(Nc1ccc2cc(Cl)ccc2n1)[C@H]1CC[C@H](c2nnc(CO[C@H]3C[C@@H](OC(F)(F)F)C3)o2)CC1 [Compound 38, trans-N-(6-chloroquinolin-2-yl)-4-(5-((cis-3-(trifluoromethoxy)cyclobutoxy)methyl)-1,3,4-oxadiazol-2-yl)cyclohexanecarboxamide]
IC50 (ATF4; [2]): 100 to 1000 nM

O=C(Nc1ccc2cc(Cl)ccc2n1)[C@H]1CC[C@H](c2nnc([C@@H]3CNc4cc(Cl)ccc4O3)o2)CC1 (single isomer, unassigned) [Compound 245]
IC50 (ATF4; [2]): 100 to 1000 nM

O=C(NC[C@H]1CC[C@H](c2nnc(-c3ccc(Cl)cc3)o2)CC1)[C@H]1C[C@@H](O)c2cc(Cl)ccc2O1 [Compound 253, (2R,4R)-6-chloro-N-((trans-4-(5-(4-chlorophenyl)-1,3,4-oxadiazol-2-yl)cyclohexyl)methyl)-4-hydroxychroman-2-carboxamide]
IC50 (ATF4; [2]): 100 to 1000 nM

O=C(NC[C@H]1CC[C@H](c2nnc(-c3ccc(Cl)cc3)o2)CC1)c1ccc(C(F)(F)F)nc1 [Compound 21, trans-N-((4-(5-(4-chlorophenyl)-1,3,4-oxadiazol-2-yl)cyclohexyl)methyl)-6-(trifluoromethyl)nicotinamide]
IC50 (ATF4; [2]): 100 to 1000 nM

O=C(Nc1ccc2cc(Cl)ccc2n1)[C@H]1CC[C@H](c2nnc([C@H]3CNc4cc(Cl)ccc4O3)o2)CC1 (single isomer, unassigned) [Compound 246]
IC50 (ATF4; [2]): 100 to 1000 nM

Reference: patent US20230083885A1, “MODULATORS OF INTEGRATED STRESS RESPONSE PATHWAY” (Praxis Biotech LLC, priority 2021, published 2023)
